Columns and labels:
D-amino acid oxidase [1] = molecular target: T1, D-amino acid oxidase (Sungouiella intermedia, UniProt A0A1L0GHW3); test: Substrate specificity of purified D-amino acid oxidase; assay type: biochemical, Candida intermedia NBRC0761; conditions: purified enzyme; activity to D-Phe as 100%; each substrate in place of DL-phenylalanine
Procedure: The activity of the D-amino acid oxidase was measured by quantifying hydrogen peroxide produced in the reaction by an enzyme method using peroxidase. Hydrogen peroxide was quantified by an enzyme method as follows. 250 μl of a chromogenic solution containing 50 mM DL-phenylalanine, 0.80 mM 4-aminoantipyrine, 1.31 mM N-ethyl-N-(2-hydroxy-3-sulfopropyl)-m-toluidine, 6 u/ml peroxidase (manufactured by TOYOBO Inc.) and 50 mM Tris-hydrochloric acid buffer (pH 8.0) was mixed with 50 μl of an appropriately diluted enzyme solution, and the mixture was reacted at 30° C. for 30 min. Absorption at 555 nm was measured, and the amount of hydrogen peroxide produced in the reaction mixture was quantified based on the analytical curve prepared in advance. The amount of the enzyme that produced 1 μmol of hydrogen peroxide in 1 minute was defined as 1 unit. In addition, protein was quantified according to a Bradford method using BSA as a standard protein. The specific activity of the purified D-amino acid oxidase was 44.8 units/mg protein (30° C.).
(§1) Moreover, the D-amino acid oxidase activity for examining the properties of the enzyme shown below was measured as follows. 250 μl of a substrate solution containing 100 mM DL-phenylalanine and 50 mM Tris-hydrochloric acid buffer (pH 8.0) was maintained at 30° C. (each temperature for determining the range of operative temperature and the optimal temperature) for 5 min, mixed with 50 μl of an appropriately diluted enzyme solution, and the mixture was reacted at 30° C. (each temperature for determining the range of operative temperature and the optimal temperature) for 5 min. 10 μl of 3N HCl was added to stop the reaction. Then, 500 μl of a chromogenic solution containing 0.80 mM 4-aminoantipyrine, 1.31 mM N-ethyl-N-(2-hydroxy-3-sulfopropyl)-m-toluidine, 6 u/ml peroxidase (manufactured by TOYOBO Inc.) and 50 mM Tris-hydrochloric acid buffer (pH 8.0), which was maintained at 30° C. for 5 min, was mixed with 100 μl of the aforementioned reaction mixture. Absorption at 555 nm was measured, and the amount of hydrogen peroxide produced in the reaction mixture was quantified based on the analytical curve prepared in advance.
The substrate specificity of the purified D-amino acid oxidase was examined. The substrate DL-phenylalanine used in the aforementioned enzyme activity assay was changed to each substrate, and the enzyme activity was measured.

D-amino acid oxidase [2] = molecular target: T1, D-amino acid oxidase; test: Specific activity of purified D-amino acid oxidase (hydrogen peroxide quantified with peroxidase); assay type: biochemical, Candida intermedia NBRC0761; conditions: 30° C.; 1 unit = 1 μmol hydrogen peroxide in 1 minute; DL-phenylalanine, pH 8.0
Procedure: An enzyme solution is appropriately diluted, mixed with a chromogenic solution containing 50 mM DL-phenylalanine, 0.80 mM 4-aminoantipyrine, 1.31 mM N-ethyl-N-(2-hydroxy-3-sulfopropyl)-m-toluidine, 6 u/ml peroxidase (manufactured by TOYOBO Inc.), and 50 mM Tris-hydrochloric acid buffer (pH 8.0) at 1:5, and reacted at 30° C. for 30 min. The absorbance at 555 nm is measured, and the amount of hydrogen peroxide produced in the reaction mixture is quantified based on the analytical curve prepared in advance. In the embodiment, unless otherwise specified, this method was used to assay the D-amino acid oxidase activity.
The activity of the D-amino acid oxidase was measured by quantifying hydrogen peroxide produced in the reaction by an enzyme method using peroxidase. Hydrogen peroxide was quantified by an enzyme method as follows. […] Absorption at 555 nm was measured, and the amount of hydrogen peroxide produced in the reaction mixture was quantified based on the analytical curve prepared in advance. […] In addition, protein was quantified according to a Bradford method using BSA as a standard protein. […]

D-amino acid oxidase [3] = molecular target: T1, D-amino acid oxidase; test: Temperature stability and pH stability (residual activity); assay type: physicochemical, Candida intermedia NBRC0761
Procedure: as §1
The temperature stability of the enzyme was measured based on the residual activity after a treatment at each temperature for 10 min.
The pH stability was examined. […]

[4] = substrate: N[C@H](Cc1ccccc1)C(=O)O; test: Measurement of Km value relative to D-Phe; assay type: biochemical, Candida intermedia NBRC0761; conditions: other: D-Phe as substrate, various substrate concentrations, reciprocal plot (FIG. 2); pH 8.0; 30.0 °C
Procedure: as §1
Using D-Phe as a substrate, the activity was measured at various substrate concentrations and the Km value relative to D-Phe was determined. From the results shown in FIG. 2, the Km value relative to D-Phe was about 1.7 (not less than 1.6 and not more than 1.8) mM.

D-amino acid oxidase [5] = molecular target: T1, D-amino acid oxidase; test: Range of reaction temperature and pH, optimal temperature and pH; assay type: biochemical, Candida intermedia NBRC0761
Procedure: as §1
The range of reaction temperature and the optimal temperature were examined.
The range of reaction pH and the optimal pH were examined. […] The enzyme was active at least within the examined range of pH 6-10.5, and the optimal pH was 8.5-9.5.

Molecule: C[C@H](N)C(=O)O [L-Ala]
- relative activity (%) (D-amino acid oxidase [1]): 0.0%

Molecule: N[C@H](CC(=O)O)C(=O)O [D-Asp]
- relative activity (%) (D-amino acid oxidase [1]): 0.0%

Molecule: CCCC(N)C(=O)O (racemic) [DL-Norvaline]
- relative activity (%) (D-amino acid oxidase [1]): 93.8%

Molecule: C[C@@H](N)C(=O)O [D-Ala]
- relative activity (%) (D-amino acid oxidase [1]): 129.1%

Molecule: O=C(O)[C@H]1CCCN1 [D-Pro]
- relative activity (%) (D-amino acid oxidase [1]): 44.3%

Molecule: CC(C)[C@@H](N)C(=O)O [D-Val]
- relative activity (%) (D-amino acid oxidase [1]): 27.3%

Molecule: N[C@H](Cc1ccc(F)cc1)C(=O)O [D-p-F-Phe]
- relative activity (%) (D-amino acid oxidase [1]): 167.2%

Molecule: N[C@H](CCC(=O)O)C(=O)O [D-Glu]
- relative activity (%) (D-amino acid oxidase [1]): 0.0%

Molecule: CSCC[C@@H](N)C(=O)O [D-Met]
- relative activity (%) (D-amino acid oxidase [1]): 100.5%

Molecule: CCC(C(=O)O)c1ccccc1 (racemic) [DL-α-phenylbutyric acid]
- relative activity (%) (D-amino acid oxidase [1]): 194.7%

Molecule: C[C@H](O)[C@@H](N)C(=O)O [D-Thr]
- relative activity (%) (D-amino acid oxidase [1]): 4.7%

Molecule: NC(=O)CC[C@@H](N)C(=O)O [D-Gln]
- relative activity (%) (D-amino acid oxidase [1]): 5.8%

Molecule: N[C@H](Cc1c[nH]cn1)C(=O)O [D-His]
- relative activity (%) (D-amino acid oxidase [1]): 4.2%

Molecule: CC[C@@H](C)[C@@H](N)C(=O)O [D-Ile]
- relative activity (%) (D-amino acid oxidase [1]): 16.6%

Molecule: NC(=O)C[C@@H](N)C(=O)O [D-Asn]
- relative activity (%) (D-amino acid oxidase [1]): 5.8%

Molecule: CCC[C@H](N)C(=O)O [L-Norvaline]
- relative activity (%) (D-amino acid oxidase [1]): 0.0%

Molecule: O=C(O)[C@@H]1CCCN1 [L-Pro]
- relative activity (%) (D-amino acid oxidase [1]): 0.0%

Molecule: NCC(=O)O [Gly]
- relative activity (%) (D-amino acid oxidase [1]): 0.0%

Molecule: NC(CCBr)C(=O)O (racemic) [DL-2-amino-4-Br-butyric acid]
- relative activity (%) (D-amino acid oxidase [1]): 17.2%

Molecule: CSCC[C@H](N)C(=O)O [L-Met]
- relative activity (%) (D-amino acid oxidase [1]): 0.0%

Molecule: N[C@@H](C(=O)O)c1ccc(O)c(O)c1 [D-3,4-dihydroxy-phenylglycine]
- relative activity (%) (D-amino acid oxidase [1]): 5.7%

Molecule: CC(C)C[C@@H](N)C(=O)O [D-Leu]
- relative activity (%) (D-amino acid oxidase [1]): 96.7%

Molecule: NCCCC[C@@H](N)C(=O)O [D-Lys]
- relative activity (%) (D-amino acid oxidase [1]): 0.0%

Molecule: N[C@H](CO)C(=O)O [D-Ser]
- relative activity (%) (D-amino acid oxidase [1]): 11.3%

Molecule: NC(N)=NCCCC(N)C(=O)O [D-Arg]
- relative activity (%) (D-amino acid oxidase [1]): 0.05%

B1: D-amino acid oxidase (Sungouiella intermedia) (protein)
chain: MSEYVIVGSGIIGLYTGYKLLESGVPGESITVEAEFLPGDESIKYTSPYAGGNFSGITGDDPDSLKFDKHTYENLPKLQKLLGGPLCGLDMLPATEIWDNVKSKKIDSLKQYLKDYQEIEQEELPEGAKFGVKFTTWNFNCPKFLSNVQKYLLSKNVTFIRKNLTHITQAFGPATKCVFNCTGNGARFLGGVQDAKVYPTRGQVVVIKAPHINENMIRWGDNYATYIIKRPYSHDQLILGGFLQKDDWTPDTLSEQTEDILFRTTNLLPKILNQNPHGPNIEDLEIVRVVAGLRPSRHGGVRIEKEVLDGKLLIHNYGAGGYGYQSGLGMADKAVKLALGQSKL
- specific activity (D-amino acid oxidase [2]): 44.8 units/mg protein
- pH stability (comparatively stable at) (D-amino acid oxidase [3]; residual activity after 30° C. for 16 hr at each pH (FIG. 6)): 7.8-8.7 pH
- temperature stability (stable at) (D-amino acid oxidase [3]; residual activity after treatment at each temperature for 10 min (FIG. 5)): ≤ 40 °C
- Km [4]: 1700 µM
- optimal pH (D-amino acid oxidase [5]; FIG. 4): 8.5-9.5 pH
- range of reaction temperature (highly active) (D-amino acid oxidase [5]; examined range, activity at 30° C. as 100% (FIG. 3)): 20-60 °C
- range of reaction pH (active) (D-amino acid oxidase [5]; examined range, activity at pH 8.0 as 100% (FIG. 4)): 6-10.5 pH

Reference: patent publication US8227228B2, “D-amino acid oxidase, and method for production of L-amino acid, 2-oxo acid, or cyclic imine” (priority 2005, dated 2012)
